Values of other authors as cited in US20060014804A1, “Cyanoguanidine prodrugs” (Leo Pharma A/S, priority 2002, published 2006).

How the values were obtained:
[1] = test system: human lung and breast cancer cell lines
[2] = test system: human lung cancer tumour xenograft; conditions: nude mice
human tumour cells [3] = conditions: compared with daunorubicin and paclitaxel
[4] = test system: normal human endothelial cells
human tumour cells [5] = conditions: nude mice transplanted with human tumour cells, also paclitaxel-resistant tumour cells

N#CNC(=Nc1ccncc1)NCCCCCCOc1ccc(Cl)cc1 [N-(6-(4-chlorophenoxy)hexyl)-N′-cyano-N″-(4-pyridyl)guanidine]
antiproliferative activity in vitro [1]: high antiproliferative activity in vitro
antitumour activity in the nude mouse model [2]: potent antitumour activity
potency in vitro (human tumour cells [3]): comparable to that of the reference cytostatic agents daunorubicin and paclitaxel
antiproliferative activity on normal human endothelial cells [4]: considerably less antiproliferative activity
antitumour activity in vivo (human tumour cells [5]): substantial antitumour activity
